The target of one assay is T1, KRAS G12D (Homo sapiens, UniProt P01116, G12D).
T1 construct: aa1-188 KRAS WT, HRAS WT, NRAS WT, or KRAS containing the G12D
Put plainly: HTRF nucleotide exchange assay, KRAS G12D. The class given is biochemical. The note with it: class symbols; for IC50: HTRF nucleotide exchange assay (NEA). Background: TR-FRET usually uses a lanthanide donor and a delayed reading to cut background.

The target of the next assay is T2, KRAS WT (Homo sapiens, UniProt P01116).
T2 construct: aa1-188 KRAS WT
Put plainly: HTRF nucleotide exchange assay, KRAS WT. The conditions noted are these: class symbols; for IC50: HTRF nucleotide exchange assay (NEA). The class given is biochemical.

For the compound `CCc1c(F)ccc2cc(O)cc(-c3cc4nc(OC[C@@]56CCCN5C[C@H](F)C6)nc(N5CCCC(O)CC5)c4c4cn(C)nc34)c12` (stereo partly drawn) [Example 42, 1-[4-(8-ethyl-7-fluoro-3-hydroxy-1-naphthyl)-2-methyl-7-[[(2R,8S)-2-fluoro-1,2,3,5,6,7-hexahydropyrrolizin-8-yl]methoxy]pyrazolo[4,3-f]quinazolin-9-yl]azepan-4-ol], the IC50 against KRAS G12D and at KRAS WT was 0.01 to 0.1 µM in each case.

As to `CCc1c(F)ccc2cc(O)cc(-c3cc4nc(OC[C@@]56CCCN5C[C@H](F)C6)nc(N5CC6CCC(C5)N6CC(C)O)c4c4cn(C)nc34)c12` (stereo partly drawn) [Example 91, 5-ethyl-6-fluoro-4-[7-[[(2R,8S)-2-fluoro-1,2,3,5,6,7-hexahydropyrrolizin-8-yl]methoxy]-9-[3-(2-hydroxypropyl)-3,8-diazabicyclo[3.2.1]octan-8-yl]-2-methyl-pyrazolo[4,3-f]quinazolin-4-yl]naphthalen-2-ol], the IC50 against KRAS G12D is not above 0.01 µM; against KRAS WT, 0.1 to 10 µM.

In the case of `C#Cc1c(F)ccc2cc(O)cc(-c3cc4nc(OC[C@@]56CCCN5C[C@H](F)C6)nc(N5CC6CNCC6C5)c4c4cn(C)nc34)c12` (stereo partly drawn) [Example 34, 4-[9-(2,3,3a,4,6,6a-hexahydro-1H-pyrrolo[3,4-c]pyrrol-5-yl)-2-methyl-7-[[(2R,8S)-2-fluoro-1,2,3,5,6,7-hexahydropyrrolizin-8-yl]methoxy]pyrazolo[4,3-f]quinazolin-4-yl]-5-ethynyl-6-fluoro-naphthalen-2-ol], the IC50 is not above 0.01 µM against KRAS G12D and 0.1 to 10 µM against KRAS WT.

Take `CCc1c(F)ccc2cc(O)cc(-c3cc4nc(OC[C@]5(C)CCCN5)nc(N5CCCn6nc(C(=O)N(C)C)cc6C5)c4c4cn(C)nc34)c12` [Example 53, 5-[4-(8-ethyl-7-fluoro-3-hydroxy-1-naphthyl)-2-methyl-7-[[(2S)-2-methylpyrrolidin-2-yl]methoxy]pyrazolo[4,3-f]quinazolin-9-yl]-N,N-dimethyl-4,6,7,8-tetrahydropyrazolo[1,5-a][1,4]diazepine-2-carboxamide]: the IC50 on KRAS G12D is 0.1 to 10 µM. Moreover, the “KRAS^WT NEA” value at KRAS WT is reported as “D (<49% inhibition at 10 μM)”.

`CCc1c(F)ccc2cc(O)cc(-c3c(C)c4nc(OCC5(CN6CCOCC6)CC5)nc(N5CCOCC(C)(O)C5)c4c4cn(C)nc34)c12` (stereo not drawn) [Example 149, 4-[4-(8-ethyl-7-fluoro-3-hydroxy-1-naphthyl)-2,5-dimethyl-7-[[1-(morpholinomethyl)cyclopropyl]methoxy]pyrazolo[4,3-f]quinazolin-9-yl]-6-methyl-1,4-oxazepan-6-ol]: the IC50 against KRAS G12D and against KRAS WT was not above 0.01 µM each time.

As for `CCc1c(F)ccc2cc(O)cc(-c3c(C)c4nc(OC[C@@]56CCCN5C[C@H](F)C6)nc(N5CCCn6nc(COC)cc6C5)c4c4cn(C)nc34)c12` [Example 243], the IC50 against KRAS G12D and against KRAS WT was not above 0.01 µM in each case.

On to `CCc1c(F)ccc2cc(O)cc(-c3c(C)c4nc(OC[C@@H]5C[C@@H](F)CN5)nc(N5CCOCC(C)(O)C5)c4c4cn(C)nc34)c12` (stereo partly drawn) [Example 140, 4-[4-(8-ethyl-7-fluoro-3-hydroxy-1-naphthyl)-2,5-dimethyl-7-[[(2S,4R)-4-fluoropyrrolidin-2-yl]methoxy]pyrazolo[4,3-f]quinazolin-9-yl]-6-methyl-1,4-oxazepan-6-ol], for which the IC50 against KRAS G12D and against KRAS WT was not above 0.01 µM throughout.

With `C#Cc1c(F)ccc2cc(O)cc(-c3cc4nc(OC[C@@]56CCCN5C[C@H](F)C6)nc(N5CCCNCC5)c4c4cn(C)nc34)c12` (single isomer, unassigned) [Example 36], the IC50 against KRAS G12D was not above 0.01 µM; against KRAS WT, 0.01 to 0.1 µM.

Take `CCc1c(F)ccc2cc(O)cc(-c3cc4nc(OC[C@@]56CCCN5C[C@H](F)C6)nc(N5CC6CNCC6C5)c4c4cn(C)nc34)c12` (stereo partly drawn) [Example 25, 4-(2,7-diazaspiro[4.4]nonan-2-yl)-6-(8-ethyl-7-fluoro-3-hydroxy-1-naphthyl)-2-[[(2R,8S)-2-fluoro-1,2,3,5,6,7-hexahydropyrrolizin-8-yl]methoxy]-7H-pyrrolo[3,4-d]pyrimidin-5-one]: the IC50 against KRAS G12D was not above 0.01 µM; against KRAS WT, 0.1 to 10 µM.

Take `CCc1c(F)ccc2cc(O)cc(-c3cc4nc(OC[C@@]56CCCN5C[C@H](F)C6)nc(N5CCC(O)C5)c4c4cn(C)nc34)c12` (mixture of isomers) [Example 117, 1-[4-(8-ethyl-7-fluoro-3-hydroxy-1-naphthyl)-2-methyl-7-[[rac-(2R,8S)-2-fluoro-1,2,3,5,6,7-hexahydropyrrolizin-8-yl]methoxy]pyrazolo[4,3-f]quinazolin-9-yl]pyrrolidin-3-ol]: the IC50 against KRAS G12D and against KRAS WT was not above 0.01 µM in each case.

Consider `CCc1c(F)ccc2cc(O)cc(-c3cc4nc(OC[C@@]56CCCN5C[C@H](F)C6)nc(N5CCCOCC5)c4c4cn(C5CC5)nc34)c12` [Example 44, 4-[2-cyclopropyl-9-(1,4-oxazepan-4-yl)-7-[[(2R,8S)-2-fluoro-1,2,3,5,6,7-hexahydropyrrolizin-8-yl]methoxy]pyrazolo[4,3-f]quinazolin-4-yl]-5-ethyl-6-fluoro-naphthalen-2-ol], for which the IC50 at KRAS G12D and on KRAS WT was 0.01 to 0.1 µM in each case.

With `CCc1c(F)ccc2cc(O)cc(-c3cc4nc(OC[C@@]56CCCN5C[C@H](F)C6)nc(N5CCC(O)C(F)(F)CC5)c4c4cn(C)nc34)c12` (stereo partly drawn) [Example 126, 1-[4-(8-ethyl-7-fluoro-3-hydroxy-1-naphthyl)-2-methyl-7-[[(2R,8S)-2-fluoro-1,2,3,5,6,7-hexahydropyrrolizin-8-yl]methoxy]pyrazolo[4,3-f]quinazolin-9-yl]-5,5-difluoro-azepan-4-ol], the IC50 against KRAS G12D and at KRAS WT was 0.01 to 0.1 µM each time.

As to `CCc1c(F)ccc2cc(O)cc(-c3cc4nc(OC[C@@]56CCCN5C[C@H](F)C6)nc(N5CC6CC(O)C(C6)C5)c4c4cn(C)nc34)c12` (stereo partly drawn) [Example 124, 3-[4-(8-ethyl-7-fluoro-3-hydroxy-1-naphthyl)-2-methyl-7-[[(2R,8S)-2-fluoro-1,2,3,5,6,7-hexahydropyrrolizin-8-yl]methoxy]pyrazolo[4,3-f]quinazolin-9-yl]-3-azabicyclo[3.2.1]octan-6-ol], the IC50 against KRAS G12D and on KRAS WT was not above 0.01 µM in each case.

Regarding `CCc1c(F)ccc2cc(O)cc(-c3c(F)c4nc(OC[C@@]56CCCN5C[C@H](F)C6)nc(N5C[C@H]6COC[C@H]6C5)c4c4cn(C)nc34)c12` [Example 174, 5-ethyl-6-fluoro-4-[5-fluoro-2-methyl-9-[(3aR,6aS)-1,3,3a,4,6,6a-hexahydrofuro[3,4-c]pyrrol-5-yl]-7-[[(2R,8S)-2-fluoro-1,2,3,5,6,7-hexahydropyrrolizin-8-yl]methoxy]pyrazolo[4,3-f]quinazolin-4-yl]naphthalen-2-ol], the IC50 at KRAS G12D and against KRAS WT was not above 0.01 µM in each case.

For `CCc1c(F)ccc2cc(O)cc(-c3c(C)c4nc(OCC5(CF)COC5)nc(N5CC6CCC5CN6)c4c4cn(C)nc34)c12` (stereo not drawn) [Example 240, 4-[9-(2,5-diazabicyclo[2.2.2]octan-2-yl)-7-[[3-(fluoromethyl)oxetan-3-yl]methoxy]-2,5-dimethyl-pyrazolo[4,3-f]quinazolin-4-yl]-5-ethyl-6-fluoro-naphthalen-2-ol], the IC50 on KRAS G12D fell in the range of 0.01 to 0.1 µM; against KRAS WT, 0.1 to 10 µM.

With `CCc1c(F)ccc2cc(O)cc(-c3cc4nc(OCC5(CN6CCC[C@H]6C(F)(F)F)CC5)nc(N5CCCn6nc(C(=O)N(C)C)cc6C5)c4c4cn(C)nc34)c12` [Example 71], on KRAS G12D, the “KRAS^G12D NEA” value is recorded as “D (<49% inhibition at 10 μM)”. Moreover, on KRAS WT, the “KRAS^WT NEA” value is recorded as “D (<49% inhibition at 10 μM)”.

On to `CCc1c(F)ccc2cc(O)cc(-c3cc4nc(OC[C@@]56CCCN5C[C@H](F)C6)nc(N5CCC6(CC6)C(O)C5)c4c4cn(C)nc34)c12` (stereo partly drawn) [Example 130, 6-[4-(8-ethyl-7-fluoro-3-hydroxy-1-naphthyl)-2-methyl-7-[[(2R,8S)-2-fluoro-1,2,3,5,6,7-hexahydropyrrolizin-8-yl]methoxy]pyrazolo[4,3-f]quinazolin-9-yl]-6-azaspiro[2.5]octan-8-ol], for which the “KRAS^G12D NEA” value on KRAS G12D was “D (<49% inhibition at 10 μM)”. Besides, at KRAS WT, the IC50 lay within 0.1 to 10 µM.

Take `CCc1c(F)ccc2cc(O)cc(-c3c(C)c4nc(OC[C@@]56CCCN5C[C@H](F)C6)nc(N5CCCn6nc(C(=O)N(C)C)cc6C5)c4c4cn(C)nc34)c12` [Example 80, 5-[4-(8-ethyl-7-fluoro-3-hydroxy-1-naphthyl)-2,5-dimethyl-7-[[(2R,8S)-2-fluoro-1,2,3,5,6,7-hexahydropyrrolizin-8-yl]methoxy]pyrazolo[4,3-f]quinazolin-9-yl]-N,N-dimethyl-4,6,7,8-tetrahydropyrazolo[1,5-a][1,4]diazepine-2-carboxamide]: the IC50 at KRAS G12D and against KRAS WT was not above 0.01 µM each time.

For `CCc1c(F)ccc2cc(O)cc(-c3cc4nc(OCC56CCCN5CCC6)nc(N5CCCOCC5)c4c4cn(C)nc34)c12` [Example 6, 5-ethyl-6-fluoro-4-[7-(1,2,3,5,6,7-hexahydropyrrolizin-8-ylmethoxy)-2-methyl-9-(1,4-oxazepan-4-yl)pyrazolo[4,3-f]quinazolin-4-yl]naphthalen-2-ol], the IC50 on KRAS G12D and against KRAS WT was not above 0.01 µM throughout.

Consider `C#Cc1c(F)ccc2cc(O)cc(-c3cc4nc(OC[C@@]56CCCN5C[C@H](F)C6)nc(N5CCCCC(C)(O)C5)c4c4cn(C)nc34)c12` (stereo partly drawn) [Example 43], for which the IC50 on KRAS G12D and at KRAS WT was not above 0.01 µM throughout.

Take `CCc1c(F)ccc2cc(O)cc(-c3c(C)c4nc(OC[C@@H]5CCCN5C)nc(N5CCOCC(C)(O)C5)c4c4cn(C)nc34)c12` (stereo partly drawn) [Example 138, 4-[4-(8-ethyl-7-fluoro-3-hydroxy-1-naphthyl)-2,5-dimethyl-7-[[(2S)-1-methylpyrrolidin-2-yl]methoxy]pyrazolo[4,3-f]quinazolin-9-yl]-6-methyl-1,4-oxazepan-6-ol]: the IC50 against KRAS G12D and against KRAS WT was not above 0.01 µM each time.

As a reminder, the IC50 is the concentration at which inhibition is half-maximal. Lower therefore signals inhibition by little substance.

These data come from patent publication US20260347364A1, “PYRAZOLO[4,3-F]QUINAZOLINE DERIVATIVES AS MODULATORS OF G12D MUTANT KRAS USEFUL FOR THE TREATMENT OF CANCER” (JAZZ PHARMACEUTICALS IRELAND LTD., priority 2023, published 2026).
